Measured values as given in patent US20250042897A1, “HETEROCYCLIC COMPOUNDS AS TRIGGERING RECEPTOR EXPRESSED ON MYELOID CELLS 2 AGONISTS AND METHODS OF USE” (Vigil Neuroscience, Inc., priority 2021, published 2025).

These compounds were tested against T1, human TREM2 (Homo sapiens, UniProt Q9NZC2) (assay: hTREM2 agonist potency by cellular Syk phosphorylation (AlphaLisa) in HEK293T-hTREM2 cells). Conditions: Table D-2; HEK293 cells expressing human TREM2 and DAP12; pSyk AlphaLisa; 45 minutes at room temperature.
T1 construct: expressed in transfected cells; host or cells: HEK293T
Format: cell-based
Procedure: In Vitro Measurement of Triggering Receptor Expressed on Myeloid Cells 2 Activity Using Cellular Phosphorylation of Spleen Tyrosine Kinase (“Syk”) Assays
Measurement of TREM2 agonist potency was done using a HEK cell line expressing human TREM2 and DAP12 (HEK293T-hTREM2 cells). Binding of small molecules to, and activation of, TREM2 increases the phosphorylation of Syk. The resultant levels of Syk phosphorylation are measured using a commercial AlphaLisa reagent kit. To perform the assay, HEK-hTREM2 cells were plated at 14,000 cells per well in a 384 well plate, in 25 μL of complete growth media and incubated at 37° C., 5% CO2 for 20-24 hours.
Prior to the assay, test compounds were diluted in the 384 well plates in assay buffer and allowed to equilibrate for 30 minutes. Growth media was removed from cell plates by inversion on blotting paper, and 25 μL of test articles in assay buffer was added to cells. Cells were incubated for 45 minutes at room temperature. After 45 minutes, assay buffer was removed and 10 μL of lysis buffer was added. Plates were shaken for 20 minutes at 350 RPM at room temperature. After complete lysis, AlphaLisa reagents were added to the lysate, and fluorescence intensity was measured using a Perkin Elmer Envision plate reader. Intensities were used to generate a standard curve, and % activation was calculated. Curve fitting was performed using Prism v9 software, log (agonist) vs response-variable slope (four parameters), and EC50s were calculated from the curve fit.
The results presented in Table D have been generated with the in vitro assay described above. This assay may be used to test any of the compounds described herein to assess and characterize a compound's ability to act as an agonist of TREM2.

T1 sequence (Q9NZC2 19-230): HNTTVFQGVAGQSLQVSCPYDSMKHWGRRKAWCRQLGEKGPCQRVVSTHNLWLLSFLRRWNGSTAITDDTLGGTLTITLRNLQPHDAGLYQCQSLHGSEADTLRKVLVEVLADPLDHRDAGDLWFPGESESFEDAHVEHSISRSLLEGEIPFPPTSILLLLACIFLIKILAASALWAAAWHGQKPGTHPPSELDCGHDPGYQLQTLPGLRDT
T1 sequence (O43914 22-113 partner): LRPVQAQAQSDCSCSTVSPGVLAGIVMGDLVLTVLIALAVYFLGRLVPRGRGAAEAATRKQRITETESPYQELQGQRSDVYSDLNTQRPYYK

EC50 [µM] | Compound
≤ 0.05 | CCn1ncc2c(-c3ccc(Cl)cc3F)nc(N3C[C@@H](C)O[C@@H](c4cnn(C5CC5)c4)C3)nc2c1=O [I-193, 4-(4-chloro-2-fluorophenyl)-2-((2S, 6R)-2-(1-cyclopropyl-1H-pyrazol-4-yl)-6-methylmorpholino)-7-ethyl-pyrimido[4,5-d]pyridazin-8 (7H)-one]
≤ 0.05 | C[C@@H]1CN(c2nc(-c3ccc(C(F)(F)F)nc3)c3cnn(C)c(=O)c3n2)C[C@H](c2cnn(C3CC3)c2)O1 [I-198, 2-[(2S, 6R)-2-(1-cyclopropylpyrazol-4-yl)-6-methyl-morpholin-4-yl]-7-methyl-4-[6-(trifluoromethyl)-3-pyridyl]pyrimido[4,5-d]pyridazin-8-one]
≤ 0.05 | Cc1ccc(-c2nc(N3C[C@@H](C)O[C@@H](c4cnn(C5CC5)c4)C3)nc3c(=O)n(C)ncc23)c(F)c1 [I-203, 2-((2S,6R)-2-(1-cyclopropyl-1H-pyrazol-4-yl)-6-methylmorpholino)-4-(2-fluoro-4-methylphenyl)-7-methylpyrimido[4,5-d]pyridazin-8 (7H)-one]
≤ 0.05 | Cc1nc2c(C3CCCCC3)nc(N3C[C@@H](C)O[C@@H](c4cnn(C5CC5)c4)C3)nc2c(=O)n1C [I-208, 8-cyclohexyl-6-((2S,6R)-2-(1-cyclopropyl-1H-pyrazol-4-yl)-6-methylmorpholino)-2,3-dimethylpyrimido[5,4-d]pyrimidin-4 (3H)-one]
≤ 0.05 | Cc1cc([C@H]2CN(c3nc(-c4ccc(F)cc4F)c4nc(C)n(C)c(=O)c4n3)C[C@@H](C)O2)ccn1 [I-213, 8-(2,4-difluorophenyl)-2,3-dimethyl-6-[(2R, 6S)-2-methyl-6-(2-methyl-4-pyridyl)morpholin-4-yl]pyrimido[5,4-d]pyrimidin-4-one]
≤ 0.05 | C[C@@H]1CN(c2nc(-c3cc(F)c(F)cc3F)c3cnn(C)c(=O)c3n2)C[C@H](c2cnn(C3CC3)c2)O1 [I-218, 2-((2S,6R)-2-(1-cyclopropyl-1H-pyrazol-4-yl)-6-methylmorpholino)-7-methyl-4-(2,4,5-trifluorophenyl)pyrimido[4,5-d]pyridazin-8 (7H)-one]

Same assay, conditions: Table D; HEK293 cells expressing human TREM2 and DAP12; pSyk AlphaLisa; 45 minutes at room temperature

EC50 [µM] | Compound
0.05 to 0.5 | Cc1nc2cc(N3CCOC(c4cc[nH]c(=O)c4)C3)nc(-c3ccc(F)cc3F)c2c(=O)n1C (centres unmarked) [compound 1, 5-(2,4-difluorophenyl)-2,3-dimethyl-7-(2-(2-oxo-1,2-dihydropyridin-4-yl)morpholino)pyrido[4,3-d]pyrimidin-4(3H)-one]
0.05 to 0.5 | Cc1nc2cc(N3CCO[C@@H](c4cc[nH]c(=O)c4)C3)nc(-c3ccc(F)cc3F)c2c(=O)n1C [compound 2, (S)-5-(2,4-difluorophenyl)-2,3-dimethyl-7-(2-(2-oxo-1,2-dihydropyridin-4-yl)morpholino)pyrido[4,3-d]pyrimidin-4(3H)-one]
3 to 100 | Cc1nc2cc(N3CCO[C@H](c4cc[nH]c(=O)c4)C3)nc(-c3ccc(F)cc3F)c2c(=O)n1C [compound 3, (R)-5-(2,4-difluorophenyl)-2,3-dimethyl-7-(2-(2-oxo-1,2-dihydropyridin-4-yl)morpholino)pyrido[4,3-d]pyrimidin-4(3H)-one]
≤ 0.05 | Cc1nc2cc(N3CCOC(c4cc[nH]c(=O)c4)C3)nc(C34CC(C(F)(F)F)(C3)C4)c2c(=O)n1C (centres unmarked) [compound 4, 2,3-dimethyl-7-(2-(2-oxo-1,2-dihydropyridin-4-yl)morpholino)-5-(3-(trifluoromethyl)bicyclo[1.1.1]pentan-1-yl)pyrido[4,3-d]pyrimidin-4(3H)-one]
0.5 to 3 | Cc1nc2nc(-c3ccc(F)cc3F)cc(C3CCOC(c4cnn(C5CC5)c4)C3)c2c(=O)n1C (centres unmarked) [compound 5, 5-(2-(1-cyclopropyl-1H-pyrazol-4-yl)tetrahydro-2H-pyran-4-yl)-7-(2,4-difluorophenyl)-2,3-dimethylpyrido[2,3-d]pyrimidin-4(3H)-one]
